Columns and labels:
Assay type in all cases: in vivo
human tau mice [1] = experiment: Barnes maze long-term memory, human tau mice; details: by week 23 of treatment (between week 19 and 23), male and female combined
Source text: (§1) The human tau mouse is a model of sporadic dementia that expresses human non-mutant tau (6 isoforms) in the absence of endogenous mouse tau. The model develops age-associated pathology, with hyperphosphorylated tau detected in cell bodies and dendrites by 3 months of age (Andorfer et al., 2003; J Neurochem 86, 582-590, doi:10.1046/j.1471-4159.2003.01879.x). These mice display abnormal spatial learning by 6 months of age and impaired learning in the Morris water maze with memory loss by 12 months of age, as well as memory deficits in the Barnes maze by 6 months of age (Marquez et al, 2021).
(§2) Female and male human tau mice (Jax #005491) were treated daily for 25 weeks with PTG-630 trihydrochloride at 1 and 5 mg/kg in drinking water starting at 10 weeks of age (before cognitive deficits appear).
(§3) Learning and memory were assessed using the Barnes maze test and the object recognition test at 6-8, 12-13, 18-19 and 24-25 weeks. Corneal nerves were imaged by corneal confocal microscopy (CCM) at week 6, 9, 12, 18 and 25. Data represent male and female results combined, mean±sem.
Using the Barnes maze test, long-term memory was assessed between week 13 and 19 and between week 19 and 23 of treatment (FIG. 1A, B).

human tau mice [2] = experiment: Object recognition test, human tau mice
Source text: as §1, §2, §3

Drebrin = experiment: Western blot of hippocampus, human tau mice: Drebrin; details: 12 weeks of treatment in drinking water
Source text: (§4) Mouse Hippocampus were processed for Western blotting analysis of (A) Drebrin (actin binding protein in dendritic spines, role in neuronal growth, a decrease=contributing factor in the pathogenesis of memory disturbance), (B) PSD95 (a post-synaptic protein, role in the regulation of excitatory synapse maturity), and (C) NeuN (neuronal nuclear antigen, biomarker for neurons, decrease=neuronal loss) (FIG. 3).

PSD95 = experiment: Western blot of hippocampus, human tau mice: PSD95; details: 1 and 5 mg/kg, tendency
Protocol: as §2, §4

NeuN = experiment: Western blot of hippocampus, human tau mice: NeuN; details: 5 mg/kg
Protocol: as §2, §4

human tau mice [3] = experiment: Tactile allodynia (manual von Frey filaments), human tau mice; details: 5 mg/kg, after 14 weeks of treatment
Protocol: as §2
(§5) Tactile and thermal responses, measures of associated damage to the peripheral nervous system (PNS), were assessed at 8, 14, 18 and 24 weeks. hTau mice developed significant tactile allodynia measured with manual von Frey filaments at the 14 weeks time point (FIG. 4).

human tau mice [4] = experiment: Thermal response to heat (hypoalgesia), human tau mice
Protocol: as §2, §5
Human tau mice develop significant hypoalgesia (FIG. 5).

htau mice [5] = experiment: Intraepidermal nerve fiber (IENF) quantification in footskin, htau mice
Source text: A standard measure of associated PNS damage to neuronal tissue and its amelioration is IENF, seen alongside changes in the CNS. […] The amelioration of these PNS effects confirms that PTG-630 readily enters and targets neuronal tissue, whether in the brain or elsewhere in the body.

htau mice [6] = experiment: Motor nerve conduction velocity (NCV), htau mice; details: htau mice with or without treatment, 8, 16 and 25 weeks
Protocol: as §2
Motor nerve conduction velocity (NCV) was measured at 8, 16 and 25 weeks after treatment.

4-hydroxynonal (4-HNE) = experiment: Lipid peroxidation, 4-HNE Oxiselect ELISA in hippocampus homogenates, htau mice
Protocol: as §2
Lipid peroxidation was assessed using the 4-hydroxynonal (4-HNE) Oxiselect ELISA in hippocampus homogenates. […] It is believed that damage to neuronal tissue occurs to a significant extent via induction of oxidative stress that leads to lipoxidation, so that amelioration by PTG-630 reflects their efficacy via anti-oxidant mechanisms.

[7] = test system: carboxymethyl Lysine (CML); experiment: Carboxymethyl lysine (CML) by LC-MS/MS in terminal plasma and brain cortex, htau mice
Protocol: as §2
Terminal plasma and brain cortex were also analyzed for carboxymethyl Lysine (CML), a prominent advanced glycation end-product (AGE), by an LC-MS/MS quantitative chemical analysis method. PTG-630 and PTG-670 were developed as potent AGE inhibitors and tested for amelioration of PNS and CNS damage due to the extensive work that implicated AGE formation as a causative factor in the development of neurodegenerative pathologies.

[8] = Mortality and apparent toxicity, 25 weeks in human tau mice; details: 1 and 5 mg/kg in drinking water
Protocol: as §2
• 1—Control (C57B16), N=7 male, N=7 female, Final N=6 male, N=6 female • 2—htau, N=7 male, N=7 female, Final N=7 male, N=6 female • 3—htau+PTG-630 1 mg/kg drinking water, N=7 male, N=7 female, Final N=7 male, N=7 female • 4—htau+PTG-630 5 mg/kg drinking water, N=7 male, N=7 female, Final N=6 male, N=7 female
One mouse in group 4 died at week 8 from tooth occlusion.

For `Cc1ncc(CN2CCOCC2)c(-c2ncc[nH]2)c1O` [PTG-630, 4-(1H-imidazol-2-yl)-2-methyl-5-(morpholinomethyl)pyridin-3-ol], the “long-term memory impairment in Barnes maze” value (human tau mice [1]) was “significantly prevented”, the “short term episodic memory deficits in Object recognition test” value (human tau mice [2]; 1 mg/kg in drinking water) was “partially ameliorated” and the “short term episodic memory deficits in Object recognition test” value (human tau mice [2]; 5 mg/kg in drinking water for 17 weeks) was “significantly alleviated”. The “short-term episodic memory (recognition index)” value (human tau mice [2]; FIG. 2 legend, dose not stated) was “partially prevented”, the “reduced drebrin levels in hippocampus” value (Drebrin) was “significantly (p<0.05) ameliorated” and the “levels of PSD95 protein in hippocampus” value (PSD95) was “dose-dependly ameliorate”. The “neuronal loss (NeuN) in hippocampus” value (NeuN) was “partially alleviated”, the tactile allodynia (human tau mice [3]) was “significantly ameliorated” and the thermal hypoalgesia (human tau mice [4]; 1 mg/kg, remained for the rest of the study) was “significant by 14 weeks of treatment”. The thermal hypoalgesia (human tau mice [4]; 5 mg/kg, by 8 weeks of treatment and for the duration of the study) was “significantly ameliorated”, the “thermal responses to heat” value (human tau mice [4]; FIG. 5 legend, after 24 weeks of treatment) was “amelioration of hypoalgesia” and the IENF in footskin (htau mice [5]; female mice) was “No difference was noted”. For the same molecule, the “decreased IENF in footskin” value (htau mice [5]; male mice, 1 mg/kg) was “significantly (p<0.05) ameliorated”, the Nerve conduction velocity (htau mice [6]) was “not significantly different from control levels” and the “4-HNE levels in hippocampus” value (4-hydroxynonal (4-HNE); 1 mg/kg) was “significantly (p<0.01) reduced HINE levels to control levels”. For the same molecule, the “4-HNE levels in hippocampus” value (4-hydroxynonal (4-HNE); 5 mg/kg) was “significantly (p<0.01) reduced HINE levels to control levels”, the “CML levels in cortex” value ([7]; female htau mice, 5 mg/kg) was “significantly (p<0.05) reduced” and the “CML levels in cortex” value ([7]; male) was “No significant difference”. For the same molecule, the “CML levels in plasma” value ([7]; male and female) was “No significant difference” and the apparent toxicity [8] was “No toxicity was apparent”.

From patent US20250090541A1, “Methods for Treating Neurodegenerative Disorders” (Praetego Inc, priority 2022, published 2025)
